From publication PMC9437101, “Curcumin-based-fluorescent probes targeting ALDH1A3 as a promising tool for glioblastoma precision surgery and early diagnosis” (Communications Biology, 2022)
Several values for one entry are separate records, joined by “and”; a condition that tells them apart may be missing. Identical values can stand only once. Each block holds one molecule with its values, some of them ahead of it.

Tests used:
ALDH1A1 = target: T1, ALDH1A1 (Homo sapiens, UniProt P00352); experiment: LC-HRMS analysis of isoenzyme activity in presence of probe; assay type: biochemical; conditions: ALDH1A1, 1 h
T1 construct: E. coli BL21 (DE3) were transformed with the full-length expression vector of each isoform; His-tag; made in house; host or cells: E. coli BL21 (DE3)
T1 sequence (P00352 1-501): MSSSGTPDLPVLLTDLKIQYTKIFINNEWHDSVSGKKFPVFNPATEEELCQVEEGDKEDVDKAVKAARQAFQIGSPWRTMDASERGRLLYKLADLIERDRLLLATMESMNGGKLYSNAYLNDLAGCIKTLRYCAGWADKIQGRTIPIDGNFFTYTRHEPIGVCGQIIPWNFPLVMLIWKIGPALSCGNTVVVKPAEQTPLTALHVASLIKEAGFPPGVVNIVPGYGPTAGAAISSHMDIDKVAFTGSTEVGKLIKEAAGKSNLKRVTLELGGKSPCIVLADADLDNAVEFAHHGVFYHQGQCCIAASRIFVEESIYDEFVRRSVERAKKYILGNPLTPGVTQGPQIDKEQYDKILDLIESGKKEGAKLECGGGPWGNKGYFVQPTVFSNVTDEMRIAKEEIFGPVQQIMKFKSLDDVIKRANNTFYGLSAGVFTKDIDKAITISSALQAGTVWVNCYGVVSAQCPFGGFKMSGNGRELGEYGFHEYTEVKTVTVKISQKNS
Method: (§1) These analyses were carried out by using UPLC-HRMS procedure with Vanquish UPLC system coupled to a Thermo Scientific Q-Exactive Plus, operating in negative electrospray ionization mode. The chromatographic separation was carried out using a Phenomenex Synergi 4 µ Polar-RP 80 A (150 × 2 mm) equipped with a Phenomenex Polar-RP (4 mm × 2 mm) security guard column. The mobile phase consisted of A: acetonitrile 0.1% formic acid and B: 0.1% formic acid. We used a linear elution gradient, starting from 80% of A to 5% A in 3 min, 3 min at 5% A, an equilibration of 4 min for a total run time of 10.00 min, at 300 µl/min flow rate. The autosampler temperature was set at 15 °C, the injection volume was 5 µl and column was maintained at 40 °C. The heated electrospray ionization source was used, with a spray voltage of […], with a capillary temperature of 300 °C, a heater temperature of 350 °C, a sheat gas flow of 45 arbitrary units (AU), an auxiliary gas flow of 10 AU and a sweep gas flow of 0 AU. During the Parallel Reaction Monitoring acquisition in negative ion mode, the instrument operated at 17,500 resolution in presence of the inclusion list (m/z = 596.20384 and m/z = 612.19875 for Probe 10 and Probe 10-COOH respectively; m/z = 534.18819 and m/z = 506.156888 for Probe 11 and Probe 11-COOH respectively) with an automatic gain control target of 2 × 10^5 charges and a maximum injection time of 100 ms. Before injecting the samples, the blanks in the list were analyzed and every biological sample was analyzed in duplicate. The biological samples analyzed were as follow: (1) Enzymatic assay Buffer; (2) Enzymatic assay Buffer + NAD^+; (3) Enzymatic assay Buffer + Probe 10 or Probe 11; (4) Enzymatic assay Buffer + ALDH1A1; (5) Enzymatic assay Buffer + ALDH1A2; (6) Enzymatic assay Buffer + ALDH1A3; (7) Enzymatic assay Buffer + ALDH1A1 + Probe 10 or Probe 11; (8) Enzymatic assay Buffer + ALDH1A2 + Probe 10 or Probe 11; (9) Enzymatic assay Buffer + ALDH1A3 + Probe 10 or Probe 11. All samples were diluted 1:1 with ACN, then 1:100 in ACN-Water 1:1 prior the LC-HRMS analysis.

ALDH1A2 = target: T2, ALDH1A2 (Homo sapiens, UniProt O94788); experiment: as above; assay type: biochemical; conditions: ALDH1A2, 1 h
T2 construct: E. coli BL21 (DE3) were transformed with the full-length expression vector of each isoform; His-tag; made in house; host or cells: E. coli BL21 (DE3)
T2 sequence (O94788 1-518): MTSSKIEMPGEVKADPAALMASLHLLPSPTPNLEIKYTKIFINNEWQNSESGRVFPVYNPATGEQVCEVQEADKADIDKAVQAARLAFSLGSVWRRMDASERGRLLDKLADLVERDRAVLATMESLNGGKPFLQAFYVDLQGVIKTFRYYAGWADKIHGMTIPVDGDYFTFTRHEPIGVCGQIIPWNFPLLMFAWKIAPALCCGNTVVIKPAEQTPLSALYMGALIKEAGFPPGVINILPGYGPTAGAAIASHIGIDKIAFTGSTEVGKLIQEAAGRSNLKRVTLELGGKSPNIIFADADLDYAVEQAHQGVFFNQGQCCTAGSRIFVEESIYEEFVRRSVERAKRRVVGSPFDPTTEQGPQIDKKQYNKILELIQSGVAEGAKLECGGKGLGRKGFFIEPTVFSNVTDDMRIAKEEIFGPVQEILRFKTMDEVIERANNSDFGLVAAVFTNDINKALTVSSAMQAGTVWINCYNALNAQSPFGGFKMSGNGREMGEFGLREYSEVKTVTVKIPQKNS
Method: as §1

[1] = LC-HRMS analysis, enzymatic assay buffer + probe without enzyme; conditions: 1 h
Method: These analyses were carried out by using UPLC-HRMS procedure with Vanquish UPLC system coupled to a Thermo Scientific Q-Exactive Plus, operating in negative electrospray ionization mode. The chromatographic separation was carried out using a Phenomenex Synergi 4 µ Polar-RP 80 A (150 × 2 mm) equipped with a Phenomenex Polar-RP (4 mm × 2 mm) security guard column. The mobile phase consisted of A: acetonitrile 0.1% formic acid and B: 0.1% formic acid. We used a linear elution gradient, starting from 80% of A to 5% A in 3 min, 3 min at 5% A, an equilibration of 4 min for a total run time of 10.00 min, at 300 µl/min flow rate. The autosampler temperature was set at 15 °C, the injection volume was 5 µl and column was maintained at 40 °C. […] Before injecting the samples, the blanks in the list were analyzed and every biological sample was analyzed in duplicate. The biological samples analyzed were as follow: (1) Enzymatic assay Buffer; (2) Enzymatic assay Buffer + NAD^+; (3) Enzymatic assay Buffer + Probe 10 or Probe 11; (4) Enzymatic assay Buffer + ALDH1A1; (5) Enzymatic assay Buffer + ALDH1A2; (6) Enzymatic assay Buffer + ALDH1A3; (7) Enzymatic assay Buffer + ALDH1A1 + Probe 10 or Probe 11; (8) Enzymatic assay Buffer + ALDH1A2 + Probe 10 or Probe 11; (9) Enzymatic assay Buffer + ALDH1A3 + Probe 10 or Probe 11. […]

[2] = substrate: COc1cc(/C=C/C(O)=C/C(=O)/C=C/c2ccc(OCc3cn(CCOc4ccc(C=O)cc4)nn3)c(OC)c2)ccc1O; experiment: KM evaluation, probe as substrate (NADH absorbance 340 nm); assay type: biochemical, human; conditions: other: probe as substrate; pH 8.0; 25.0 °C
Method: The catalytic activity of the ALDH1As isoenzymes in complex with probe 10 was tested on a Tecan Sunrise 96 Multiplate Reader with Greiner Bio-One 96-UV-Transparent Microplates. […] Each reaction mix was preincubated for 10 min at 25 °C before the analysis. The catalytic activity was measured by monitoring the absorbance at 340 nm (εNADH = 6220 M^−1 cm^−1) for 12 h at 25 °C and the inhibitory parameters were calculated by processing the raw data on GraphPad.

AREA TIC of Probe 10-COOH formed from Probe 10 [1]: 0
Molecule: COc1cc(/C=C/C(O)=C/C(=O)/C=C/c2ccc(OCc3cn(CCOc4ccc(C(=O)O)cc4)nn3)c(OC)c2)ccc1O [Probe 10-COOH]
AREA TIC of Probe 10-COOH formed from Probe 10 (ALDH1A1): 26353656 and 30637066 and 18030552 and 17027138 | AREA TIC of Probe 10-COOH formed from Probe 10 (ALDH1A2): 18647884 and 19590595 and 21767211 and 22597746

B1: ALDH1A1 (Homo sapiens) (protein)
chain: T1 sequence (P00352 1-501)
notes: E. coli BL21 (DE3) were transformed with the full-length expression vector of each isoform; His-tag; made in house; host or cells: E. coli BL21 (DE3)
Km [2]: 255.2 µM

B2: ALDH1A2 (Homo sapiens) (protein)
chain: T2 sequence (O94788 1-518)
notes: as for B1
Km [2]: 220.0 µM
